SMILES strings stand for the structures. pIC50: −log10 of the molar value.

The test system of one data set is HIV-1(IIIB).
Experiment: not given
Settings: not given
`CCOC(=O)/C(O)=C/C(=O)c1cn(Cc2ccc(F)cc2F)c2ccccc2c1=O` [10j, 4-[1-(2,4-Difluorophenyl)methyl-4(1H)-quinolinon-3-yl]-2-hydroxy-4-oxo-2-butenoic Acid Ethyl Ester]: the “selectivity index (SI)” value was greater than 86.2.

The same data set, now with this note: Table 1.
With `CCOC(=O)/C(O)=C/C(=O)c1cn(Cc2ccccc2F)c2ccccc2c1=O` [10b, 4-[1-(2-Fluorophenyl)methyl-4(1H)-quinolinon-3-yl]-2-hydroxy-4-oxo-2-butenoic Acid Ethyl Ester], the “SI = CC50/EC50” value is given as greater than 33.4.

For `CCOC(=O)/C(O)=C/C(=O)c1cn(Cc2ccc(F)cc2F)c2ccccc2c1=O` [10j, 4-[1-(2,4-Difluorophenyl)methyl-4(1H)-quinolinon-3-yl]-2-hydroxy-4-oxo-2-butenoic Acid Ethyl Ester], the “SI = CC50/EC50” value was greater than 86.2.

On to `CCOC(=O)/C(O)=C/C(=O)c1cn(Cc2ccc(F)c(F)c2)c2ccccc2c1=O` [10m, 4-[1-(3,4-Difluorophenyl)methyl-4(1H)-quinolinon-3-yl]-2-hydroxy-4-oxo-2-butenoic Acid Ethyl Ester], for which the “SI = CC50/EC50” value is greater than 5.1.

In the case of `CCOC(=O)/C(O)=C/C(=O)c1cn(Cc2cc(F)cc(F)c2)c2ccccc2c1=O` [10n, 4-[1-(3,5-Difluorophenyl)methyl-4(1H)-quinolinon-3-yl]-2-hydroxy-4-oxo-2-butenoic Acid Ethyl Ester], the “SI = CC50/EC50” value was greater than 1.5.

Turning to `CCOC(=O)/C(O)=C/C(=O)c1cn(Cc2cccc(Cl)c2F)c2ccccc2c1=O` [10s, 4-[1-(3-Chloro-2-fluorophenyl)methyl-4(1H)-quinolinon-3-yl]-2-hydroxy-4-oxo-2-butenoic Acid Ethyl Ester], the “SI = CC50/EC50” value is greater than 5.

For the molecule `CCOC(=O)/C(O)=C/C(=O)c1cn(Cc2ccc(F)c(Cl)c2)c2ccccc2c1=O` [10t, 4-[1-(3-Chloro-4-fluorophenyl)methyl-4(1H)-quinolinon-3-yl]-2-hydroxy-4-oxo-2-butenoic Acid Ethyl Ester], the “SI = CC50/EC50” value is greater than 2.9.

Regarding `CCOC(=O)/C(O)=C/C(=O)c1cn(Cc2ccccc2F)c2cc(Cl)ccc2c1=O` [10w, 4-[7-Chloro-1-(2-fluorophenyl)methyl-4(1H)-quinolinon-3-yl]-2-hydroxy-4-oxo-2-butenoic Acid Ethyl Ester], the “SI = CC50/EC50” value was greater than 4.5.

Take `O=C(O)/C(O)=C/C(=O)c1cn(Cc2cccc(F)c2)c2ccccc2c1=O` [11d, 4-[1-(3-Fluorophenyl)methyl-4(1H)-quinolinon-3-yl]-2-hydroxy-4-oxo-2-butenoic Acid]: the “SI = CC50/EC50” value is on record as greater than 1.8.

As for `O=C(O)/C(O)=C/C(=O)c1cn(Cc2ccc(F)cc2F)c2ccccc2c1=O` [11j, 4-[1-(2,4-Difluorophenyl)methyl-4(1H)-quinolinon-3-yl]-2-hydroxy-4-oxo-2-butenoic Acid], the “SI = CC50/EC50” value is recorded as greater than 3.6.

As for `O=C(O)/C(O)=C/C(=O)c1cn(Cc2cccc(Cl)c2F)c2ccccc2c1=O` [11s, 4-[1-(3-Chloro-2-fluorophenyl)methyl-4(1H)-quinolinon-3-yl]-2-hydroxy-4-oxo-2-butenoic Acid], the “SI = CC50/EC50” value is greater than 2.1.

Regarding `O=C(O)/C(O)=C/C(=O)c1cn(Cc2ccccc2F)c2cc(Cl)ccc2c1=O` [11w, 4-[7-Chloro-1-(2-fluorophenyl)methyl-4(1H)-quinolinon-3-yl]-2-hydroxy-4-oxo-2-butenoic Acid], the “SI = CC50/EC50” value was greater than 2.9.

The next data set deals with HIV-1 IN (3′-P) (Human immunodeficiency virus type 1 group M subtype B, UniProt P04585). Description: HIV-1 IN gel-based assay, 3′-processing. The data set is classed as biochemical.
Settings: not given
In general, pIC50 refers to the negative decadic logarithm of the IC50, by convention in mol/L. Higher therefore signals a low IC50. `CCOC(=O)/C(O)=C/C(=O)c1cn(Cc2ccc3ccccc3n2)c2ccccc2c1=O` [10aa, 2-Hydroxy-4-oxo-4-(4-oxo-1-(quinolin-2-ylmethyl)-1,4-dihydroquinolin-3-yl)but-2-enoic Acid Ethyl Ester] showed a pIC50 of less than 3.00.

With `CCOC(=O)/C(O)=C/C(=O)c1cn(Cc2cccc(OC)c2)c2ccccc2c1=O` [10e, 4-[1-(3-Methoxyphenyl)methyl-4(1H)-quinolinon-3-yl]-2-hydroxy-4-oxo-2-butenoic Acid Ethyl Ester], the pIC50 was less than 3.48.

On to `CCOC(=O)/C(O)=C/C(=O)c1cn(Cc2ccc(F)c(Cl)c2)c2c(Cl)cccc2c1=O` [10u, 8-Chloro-4-[1-(3-chloro-4-fluorophenyl)methyl-4(1H)-quinolinon-3-yl]-2-hydroxy-4-oxo-2-butenoic Acid Ethyl Ester], for which the pIC50 is less than 3.48.

Source of the values: article PMC8320704 (Journal of medicinal chemistry, 2015).
